From PMC11420944, “Targeted Degradation of Protein Kinase A via a Stapled Peptide PROTAC” (ACS Chemical Biology, 2024)

Legend:
[1] = system: phospho VASP; test: VASP phosphorylation in forskolin-stimulated cells, Western blot; assay type: cell-based; conditions: MDA-MB-231 cells, 50 µM H89 added 30 min before 50 µM forskolin (30 min); n = 3
Description: (§1) Next, we sought to assess whether StIP-TAC could also downregulate PKAc signaling in cells. For this experiment, cells were treated with forskolin to stimulate PKAc activity. Cells were either treated with DMSO, the small molecule PKAc inhibitor H89, StIP-TAC alone, or StIP-TAC with SAINT protein (Figure 4; Figure S7). […] (Figure 4C,D). A known PKA substrate, vasodilator-stimulated phosphoprotein (VASP),[42] was also probed for PKA-mediated phosphorylation (Figure S8).
Cell-based PROTAC activity assays. MDA-MB-231 cells were grown on 6-well tissue culture plates (BD Biosciences). Cells were serum-starved for 24 hours in serum-free RPMI with penicillin/streptomycin, glucose, and L-glutamine. StIP-TAC treatment was prepared with SAINT-Protein reagent according to manufacturer protocol (Synvolux) and added to cells at a final concentration of 10 µM for 5 hours. For phosphorylation studies, cells were additionally stimulated with 50 µM forskolin for 30 minutes before harvesting. For H89-treated cells, 50 μM H89 was added 30 minutes before stimulation with forskolin. For degradation studies, cells were co-treated with 10 μM MG-132 (Selleck Chemicals) alongside StIP-TAC and DMSO treatments for the duration of the 5-hour experiment. […] Cells were harvested in Laemmli sample buffer, boiled for 10 minutes and protein levels were analyzed via western blotting. […]
Biosciences). Western blot fluorescence detection was performed using a LI-COR Odyssey Fc imaging system. […]
Table S1. Peptide and PROTAC sequences, expected and observed masses determined via HPLC-MS. […]
Figure S8: StIP-TAC inhibits phosphorylation of the PKA substrate VASP. […] (B) Densitometric quantification of Western blots […]
reduction in phosphorylated VASP in cells treated with H89 and StIP-TAC with SAINT Protein reagent. Quantification was performed via Li-COR Image Studio. **p=0.010; ***p<0.001; ns, not significant as assessed by one-way ANOVA and Bonferroni’s multiple comparisons test. […]

[2] = system: phospho serine/threonine PKA substrate; test: PKA substrate phosphorylation in forskolin-stimulated cells, Western blot; assay type: cell-based; conditions: MDA-MB-231 cells, 50 µM H89 added 30 min before 50 µM forskolin (30 min); n = 3
Description: as §1
Cell-based PROTAC activity assays. MDA-MB-231 cells were grown on 6-well tissue culture plates (BD Biosciences). Cells were serum-starved for 24 hours in serum-free RPMI with penicillin/streptomycin, glucose, and L-glutamine. StIP-TAC treatment was prepared with SAINT-Protein reagent according to manufacturer protocol (Synvolux) and added to cells at a final concentration of 10 µM for 5 hours. For phosphorylation studies, cells were additionally stimulated with 50 µM forskolin for 30 minutes before harvesting. For H89-treated cells, 50 μM H89 was added 30 minutes before stimulation […]
with forskolin. […]
Cells were harvested in Laemmli sample buffer, boiled for 10 minutes and protein levels were analyzed via western blotting. For control experiments, cells were incubated for 5 hours with an equivalent volume of DMSO or SAINT-Protein to the above studies, with or without forskolin stimulation.
To assess PKA degradation, anti-PKAc (1:1000, BD Biosciences) and anti-GAPDH (1:1000, Proteintech) primary antibodies were used. To assess PKA substrate phosphorylation, anti-phospho serine/threonine PKA substrate (1:1000, Cell Signaling […]
Incubation with primary antibodies was followed by incubation with anti-mouse […]
Biosciences). Western blot fluorescence detection was performed using a LI-COR Odyssey Fc imaging system. Data analysis was performed using GraphPad Prism […]
Figure S7: Western blots for PKA substrate phosphorylation. Experiments were performed in triplicate (n=3) in low passage number MDA-MB-231 cells (ATCC HTB-26). Following t = 24 hour starvation in serum-free RPMI media, cells were treated for t = 5 hours with DMSO, SAINT-Protein Lipid reagent alone, 10 µM StIP-TAC, or 10 µM StIP-TAC incubated with SAINT-Protein Lipid reagent per manufacturer instructions. For forskolin-stimulated treatments, cells were incubated for 30 minutes with 50 µM forskolin […]
prior to harvesting in Laemmli sample buffer. For H89-inhibited treatments, cells were incubated for 30 minutes prior to forskolin stimulation with 50 µM H89. Lysates were run via SDS-PAGE and Western blotting performed anti-phospho serine/threonine PKA substrate (1:1000, Cell Signaling Technology) and anti-tubulin (1:1000, Cell Signaling Technology) primary antibodies.

[3] = biological target: recombinant human DNAJB1-PKAc (Homo sapiens, UniProt P17612+P25685); test: Fluorescence polarization direct binding of fluorescein-labeled peptides; conditions: FP, N-terminally FAM-labeled peptide 0.5 nM, DNAJ-PKA-C 3 µM to 30 pM, 20 mM MOPS pH 7, 150 mM NaCl, 0.005% CHAPS, 1 mM ATP, 10 mM MgCl2, room temperature, mean and SD of three independent measurements
Description: To determine the binding affinity of the truncated library toward the catalytic subunit of PKA, fluorescence polarization (FP) experiments were performed using N-terminally fluorescein-labeled PKI-derived peptides incubated with a range of concentrations of recombinant human DNAJB1-PKAc (Figure 2). The DNAJB1-PKAc chimera is a clinically relevant protein identified in fibrolamellar hepatocellular carcinoma (FL-HCC) patients that combines the chaperonin-binding domain of heat-shock protein 40 (HSP40/DNAJ) with the catalytic (c) subunit of PKA.[34] The active site of the DNAJB1-PKAc protein is identical to native PKAc and retains inhibition by PKI with a nearly identical binding conformation.[35] […] To generate the StIP-TAC, several PEG linker lengths were conjugated with the thalidomide-derived Cereblon Ligand 1 and preliminarily tested (PEG3 to PEG9; Figure S2). All PEG lengths appeared to yield compound activity, and thus the PEG8 linker was chosen to provide greater flexibility to the overall compound. […]
Fluorescence Polarization (FP) Assay. Binding studies for the truncated peptide library to DNAJ-PKA-C were performed according to protocols described previously 21.
FAM-labeled peptides were plated to a final concentration of 0.5 nM after the addition of protein in 384-well microtiter plates. A tenfold dilution series of DNAJ-PKA-C were mixed in peptide wells to have 6 final concentrations ranging from 3 µM to 30 pM.
Assays were performed using FP buffer (20 mM MOPS pH 7, 150 mM NaCl, 0.005% CHAPS, 1 mM ATP, 10 mM MgCl2) at room temperature. All data were obtained using a BioTek Synergy 2 microplate reader using the following settings: excitation/emission/dichroic filters: 485-20 nm/528-20 nm/510 nm, 50 flashes per well, settling time 0.1 s. Non-linear regression (sigmoidal dose-response) was performed using GraphPad Prism 6.01 on FP signals plotted against log-scale protein concentrations to determine equilibrium dissociation constants (KD). Data analysis was performed using GraphPad Prism (Dotmatics). […]

Structure (SMILES)	phosphorylated VASP [1]	total PKA substrate phosphorylation [2]	Kd [3] [nM]	Kd ([3]; SD) [nM]
O=S(=O)(NCCNC/C=C/c1ccc(Br)cc1)c1cccc2cnccc12 [H89, reference compound]	statistically significant reduction	statistically significant reduction	–	–
CC[C@H](C)[C@H](NC(=O)[C@H](C)NC(=O)[C@H](CC(N)=O)NC(=O)[C@H](CCCNC(=N)N)NC(=O)[C@H](CCCNC(=N)N)NC(=O)CNC(=O)[C@@H](NC(=O)[C@H](CCCNC(=N)N)NC(=O)CNC(=O)[C@H](CO)NC(=O)[C@H](C)NC(=O)[C@@H](NC(=O)[C@H](Cc1ccccc1)NC(=O)[C@H](CC(=O)O)NC(=O)[C@]1(C)CCCC=CCCC[C@](C)(NC(=O)[C@@H](NC(=O)[C@H](CC(=O)O)NC(=O)[C@@H](NC(=O)COCCOCCOCCNC(=O)c2ccc3c(c2)C(=O)OC32c3ccc(O)cc3Oc3cc(O)ccc32)[C@@H](C)O)C(C)C)C(=O)N[C@@H]([C@@H](C)O)C(=O)N[C@@H]([C@@H](C)O)C(=O)N[C@@H](Cc2ccc(O)cc2)C(=O)N1)[C@@H](C)CC)[C@@H](C)O)C(N)=O [StIP-4]	–	–	3 to 4	3.2 ± 0.1
CC[C@H](C)[C@H](NC(=O)[C@H](C)NC(=O)[C@H](CC(N)=O)NC(=O)[C@H](CCCNC(=N)N)NC(=O)[C@H](CCCNC(=N)N)NC(=O)CNC(=O)[C@@H](NC(=O)[C@H](CCCNC(=N)N)NC(=O)CNC(=O)[C@H](CO)NC(=O)[C@H](C)NC(=O)[C@@H](NC(=O)[C@H](Cc1ccccc1)NC(=O)[C@H](CC(=O)O)NC(=O)[C@]1(C)CCCC=CCCC[C@](C)(NC(=O)COCCOCCOCCNC(=O)c2ccc3c(c2)C(=O)OC32c3ccc(O)cc3Oc3cc(O)ccc32)C(=O)N[C@@H]([C@@H](C)O)C(=O)N[C@@H]([C@@H](C)O)C(=O)N[C@@H](Cc2ccc(O)cc2)C(=O)N1)[C@@H](C)CC)[C@@H](C)O)C(N)=O [StIP-3]	–	–	3 to 4	3.5 ± 0.1
